This is an account of results in US9534059B2, “TIKI inhibitors” (Children's Medical Center Corporation, priority 2012, dated 2017).

Common to all, as to format: in vivo
The target of series [1] is T1, Tiki1 (Xenopus tropicalis, UniProt F6PTN1).
T1 construct: Thus the endogenous Tiki1 in the Organizer acts in both Wnt-producing and Wnt-responding cells; endogenous in cells; host or cells: Xenopus embryos (dorsal blastomeres / organizer)
T1 sequence (F6PTN1 24-480): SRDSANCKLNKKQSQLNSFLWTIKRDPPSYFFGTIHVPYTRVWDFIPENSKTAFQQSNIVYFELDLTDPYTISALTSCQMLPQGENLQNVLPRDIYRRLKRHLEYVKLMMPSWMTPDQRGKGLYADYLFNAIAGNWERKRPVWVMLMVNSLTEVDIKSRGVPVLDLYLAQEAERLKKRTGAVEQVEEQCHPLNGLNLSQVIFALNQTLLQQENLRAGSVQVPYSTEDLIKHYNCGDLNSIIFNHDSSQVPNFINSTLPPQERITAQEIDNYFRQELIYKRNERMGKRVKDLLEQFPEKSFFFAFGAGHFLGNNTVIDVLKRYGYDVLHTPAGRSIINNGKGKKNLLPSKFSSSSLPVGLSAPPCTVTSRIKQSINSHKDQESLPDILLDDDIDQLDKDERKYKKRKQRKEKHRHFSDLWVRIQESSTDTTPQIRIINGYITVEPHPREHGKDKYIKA
As to the kind of experiment: S01234-luciferase Wnt-responsive reporter assay in embryos with Tiki1MO knockdown. The conditions noted are these: 20 ng MO in Xwnt8-producing or Xwnt8-responding cells. How it is done: (C) The endogenous Tiki1 acts in Wnt-producing cells. Tiki1MO or control MO (20 ng) was co-injected with CS2+Xwnt8 DNA (40 pg) into a single dorsal blastomere at the 8-cell stage, while 501234-Luciferase or S0-luciferase (100 pg) plus TK-Renilla (1.25 pg) reporter DNAs were injected into a neighboring dorsal blastomere.
(D) The endogenous Tiki1 acts in Wnt-responding cells. S01234-luciferase or S0-luciferease and TK-Renilla reporter DNAs were co-injected with Tiki1MO or control MO into a single dorsal blastomere, while CS2+Xwnt8 was injected into a neighboring dorsal blastomere. Luciferase readings were normalized to Renilla.
The same question was addressed complementarily via Tiki1MO knockdown in dorsal blastomeres whose progenies expresses Tiki1 endogenously. At the 8-cell stage, an Xwnt8 expression plasmid (which transcribes Xwnt8 after mid-blastula transition) plus the Tiki1MO (or control MO) were co-injected into a single blastomere (i.e., to knock down Tiki1 in Xwnt8-producing cells), and the S01234-luciferase plasmid was injected into the neighboring blastomere. Alternatively the Xwnt8 plasmid was injected into a single blastomere, and the 501234-luciferase reporter plus Tiki1MO or control MO was co-injected into the neighboring blastomere (i.e., to knock down Tiki1 in Xwnt8-responding cells).
For orientation: In a reporter assay the amount or activity of a reporter protein is the signal.

Series [2] deals with T1, Tiki1. The experiment in a line: MO block of Tiki1 protein synthesis in animal caps, Western blotting. The conditions noted are these: animal caps stage 10. How it is done:
(A) 500 pg mRNA for Tiki1-FLAG (targeted by MO) or HA*Tiki1 (resistant to MO) were injected with or without the Tiki1MO (5, 10, 20, 40 ng) into the animal pole at the 2-cell stage, and animal caps were dissected at stage 10 for Western blotting. MO, morpholino antisense oligonucleotide.
20 ng of Tiki1MO were injected into two dorsal blastomeres of 8-cell stage embryos. […] Co-injection of HA*Tiki1 mRNA rescued Tiki1MO phenotypes (FIGS. 3B and 3C). Supporting a role of Tiki1 in Wnt inhibition during head formation, Dkk1 mRNA injection also rescued Tiki1MO anterior deficiency phenotypes (FIG. 3E).
Background: A western blot detects proteins with antibodies after separation by electrophoresis.

Series [3] deals with T1, Tiki1. As to the kind of experiment: Anterior neural marker expression at stage 16 in MO-injected embryos, whole mount in situ hybridization (FIG. 3I). The procedure:
(I) Tiki1 is required for anterior neural patterning. 20 ng of control MO or Tiki1MO plus fluorescein dextran (FLD, as a lineage tracer) were injected into one dorsal blastomere at the 8-cell stage. 50 pg of HA*Tiki1 mRNA were injected into the dorsal-animal blastomeres at the 4-cell stage in rescue experiments. Injected embryos were collected at stage 16 and subjected for whole mount in situ hybridization. Expression of forebrain markers BF1 and Otx2 (not shown) and the midbrain marker Ent was reduced in the Tiki1MO-injected half and was rescued by HA*Tiki1.
Procedures for embryo manipulation, reverse transcription PCR and in situ hybridization were performed as previously described (Tamai et al., 2000). The arrayed Xenopus tropicalis full length cDNAs (Voigt et al., 2005) were used for the screening as performed previously (Kato et al., 2002). cDNA pools (in the CS107 vector) that contain 96 independent clones were transcribed in vitro using SP6 polymerase, and the resulting mRNA pools were injected into the dorsal side of the embryo at 4-cell stage at the dose of 10 ng RNA/embryo. Injected embryos were scored at stage 30-31 for enlarged or diminished anterior development. The positive pools were divided into smaller pools and the same process was repeated till a single cDNA was identified.
The following morpholino oligonucleotides were used: Tiki1 MO: 5′-[…]-3′ (SEQ ID NO:33); standard control MO: 5′-[…]-3′ (SEQ ID NO:34) (Gene Tools, LLC). RT-PCR primers for XTiki1: Forward, 5′-[…]-3′(SEQ ID NO:35), Reverse, 5′-[…]-3′(SEQ ID NO:36); human TIKI1: Forward, 5′-[…]-3′(SEQ ID NO:37), Reverse, 5′-[…]-3′(SEQ ID NO:38); human TIKI2: Forward, 5′-[…]-3′(SEQ ID NO:39), Reverse, 5′-[…]-3′(SEQ ID NO:40).
The fact that Tiki1 is specifically expressed in, and is required for function of, the head organizer implies that Tiki1 has a role in anterior neural patterning. Tiki1MO were injected with fluorescein dextran (FLD, as a lineage tracer) into one dorsal-animal blastomere at the 8-cell stage and analyzed expression of anterior neural markers at stage 16. Tiki1MO suppressed, in the injected half of the embryo, the expression of forebrain marker BF1 and Otx2 (FIG. 3I and Table 3). […] HA*Tiki1 mRNA injection rescued the expression of BF1, Otx2, and Ent in Tiki1MO-injected embryos (FIG. 3I and Table 3).

Consider “Tiki1 MO: morpholino antisense oligonucleotide against Tiki1, 5′-CCAAATGATTACCATCATAGCTCAG-3′ (SEQ ID NO:33) (all phosphorodiamidate morpholino (PMO))”, for which the “XWnt8 response of S01234-luciferase reporter” value with Tiki1 [1] is listed as “enhanced”. In the series with Tiki1 [2] (5, 10, 20, 40 ng MO), the “Synthesis of exogenously expressed Tiki1-FLAG” value is “specifically blocked the synthesis”. Besides, in the series with Tiki1 [2], the “Synthesis of HA*Tiki1 (mRNA lacking the MO complementary sequence)” value is “unable to block the synthesis”. Moreover, in the series with Tiki1 [3] (gene BF1, stage 16), the “Whole embryos displaying change in gene expression: BF1 Absent, Percentage (%)” value stood at 63%; the “Whole embryos displaying change in gene expression: BF1 NC (No Change), Percentage (%)” value is on record as 14%; the “Whole embryos displaying change in gene expression: BF1 Reduced, Percentage (%)” value is recorded as 23%; the “Whole embryos displaying change in gene expression: BF1 increased, Percentage (%)” value stood at 0%. Moreover, in the series with Tiki1 [3] (gene En-2, stage 16), the “Whole embryos displaying change in gene expression: En-2 Absent, Percentage (%)” value is on record as 40%; the “Whole embryos displaying change in gene expression: En-2 NC (No Change), Percentage (%)” value turned out to be 35%; the “Whole embryos displaying change in gene expression: En-2 Reduced, Percentage (%)” value was 25%; the “Whole embryos displaying change in gene expression: En-2 increased, Percentage (%)” value was 0%. Also, in the series with Tiki1 [3] (gene HoxB9, stage 16), the “Whole embryos displaying change in gene expression: HoxB9 Absent, Percentage (%)” value came out at 0%; the “Whole embryos displaying change in gene expression: HoxB9 NC (No Change), Percentage (%)” value came out at 100%; the “Whole embryos displaying change in gene expression: HoxB9 Reduced, Percentage (%)” value is reported as 0%; the “Whole embryos displaying change in gene expression: HoxB9 increased, Percentage (%)” value was found to be 0%. Also, in the series with Tiki1 [3] (gene Otx2, stage 16), the “Whole embryos displaying change in gene expression: Otx2 Absent, Percentage (%)” value is given as 35%; the “Whole embryos displaying change in gene expression: Otx2 NC (No Change), Percentage (%)” value is given as 35%; the “Whole embryos displaying change in gene expression: Otx2 Reduced, Percentage (%)” value stood at 30%; the “Whole embryos displaying change in gene expression: Otx2 increased, Percentage (%)” value was found to be 0%.
